Measured values as given in publication PMC2790889 (Nucleic Acids Research, 2009).
Where two headings read alike, the source gives them in different places. Values belong to the molecule of their own block, whether it stands above or below them.

Key:
GidA [1] = target: T1, GidA (Escherichia coli, UniProt P0A6U3); assay: Affinity of GidA for FAD and NADH; type: binding
T1 sequence (P0A6U3 1-629): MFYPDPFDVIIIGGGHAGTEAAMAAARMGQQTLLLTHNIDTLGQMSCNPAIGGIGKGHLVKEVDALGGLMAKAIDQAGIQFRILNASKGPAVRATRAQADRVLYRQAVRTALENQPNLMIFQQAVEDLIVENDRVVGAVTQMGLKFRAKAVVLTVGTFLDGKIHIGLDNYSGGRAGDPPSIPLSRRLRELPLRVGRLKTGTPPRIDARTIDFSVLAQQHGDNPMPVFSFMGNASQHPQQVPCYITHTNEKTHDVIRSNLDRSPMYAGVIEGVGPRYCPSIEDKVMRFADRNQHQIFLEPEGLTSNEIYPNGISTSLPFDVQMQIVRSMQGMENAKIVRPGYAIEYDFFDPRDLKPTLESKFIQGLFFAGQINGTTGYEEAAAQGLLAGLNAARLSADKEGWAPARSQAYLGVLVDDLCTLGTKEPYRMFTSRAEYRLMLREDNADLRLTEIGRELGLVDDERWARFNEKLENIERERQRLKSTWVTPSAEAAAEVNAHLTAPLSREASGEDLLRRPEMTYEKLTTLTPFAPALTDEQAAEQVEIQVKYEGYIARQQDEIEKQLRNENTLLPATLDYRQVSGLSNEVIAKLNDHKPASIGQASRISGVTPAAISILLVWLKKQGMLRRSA

GidA [2] = target: T1, GidA; settings: read-out: Kd (affinity of GidA for NADH); cited from earlier work
TrmFO = settings: cited from earlier work

- Kd (GidA [1]): ~3 µM
Molecule: Cc1cc2nc3c(=O)[nH]c(=O)nc-3n(C[C@H](O)[C@H](O)[C@H](O)COP(=O)(O)OP(=O)(O)OC[C@H]3O[C@@H](n4cnc5c(N)ncnc54)[C@H](O)[C@@H]3O)c2cc1C [FAD]

Molecule: NC(=O)C1=CN([C@@H]2O[C@H](COP(=O)(O)OP(=O)(O)OC[C@H]3O[C@@H](n4cnc5c(N)ncnc54)[C@H](O)[C@@H]3O)[C@@H](O)[C@H]2O)C=CC1 [NADH]
- Kd (GidA [2]): ~11 µM

Molecule: (6S) THF
- concentrations of THF that inhibit the methylene-THF-dependent activity of TrmFO (TrmFO): higher than 2 µM
